SMILES strings stand for the structures.

One data set relates to Huh7. The data set can be described thus: SRB cytotoxicity assay. To be noted: Homo sapiens, Huh-7, 72 h, 72 h treatment. Type of data set: cell-based, human. Here is the method:
(§1) HepG2, FOCUS, Hep3B, Mahlavu, Huh7, Hep40, and PLC-PRF-5 hepatocellular carcinoma cells; MCF-7, MDA-MB-231, MDA-MB-468, SKBR3, and ZR-75 breast cancer cells; and normal-like epithelial MCF-10A breast cells were cultured in low-glucose Dulbecco’s modified Eagle’s medium (DMEM) (Biological Industries-BI) supplemented with 10% fetal bovine serum (FBS) (Gibco/Thermo Fisher Scientific), 2 mM L-Glutamine (Gibco/Thermo Fisher Scientific), 100 Units/mL Penicillin/Streptomycin, and 0.1 mM non-essential amino acid (Gibco/Thermo Fisher Scientific). SNU475 hepatocellular carcinoma cells were maintained in RPMI (Biological Industries-BI) supplemented with 10% fetal bovine serum (FBS) (Gibco/Thermo Fisher Scientific), L-Glutamine (Gibco/Thermo Fisher Scientific), and 100 Units/mL Penicillin/Streptomycin, while ZR-75 breast cancer cells were cultured RPMI (Biological Industries-BI) supplemented with 10% fetal bovine serum (FBS) (Gibco/Thermo Fisher Scientific), 1× sodium pyruvate, and %4.5 glucose. Normal-like MCF-10A breast cells were sustained in DMEM/HAM’S F12 (Hyclone) supplemented with 10% fetal bovine serum (FBS) (Gibco/Thermo Fisher Scientific), EGF (20 ng/mL), Hydrocortisone ([…]), cholera toxin (100 ng/mL), insulin (10 μg/mL), and 100 Units/mL Penicillin/Streptomycin. The cells were cultivated at 37 °C in a humidified incubator under 5% CO2.
(§2) Mahlavu, FOCUS, SNU475 (1000 cell/well in 150 μL/well); Huh7, MCF7 (2500 cell/well in 150 μL/well); HepG2, Hep3B, SKBR3 (3000 cell/well in 150 μL/well); PLC-PRF-5, Hep40 (5000 cell/well in 150 μL/well); MDA-MB-231, MDA-MB-468, MCF10A (6000 cell/well in 150 μL/well); and ZR-75 (7500 cell/well in 150 μL/well) were cultured in 96-well plates and were inoculated in an incubator for 24 hours. The compounds were dissolved in dimethyl sulfoxide (DMSO) (Sigma, St Louis, MO) as a 20 mM stock solution. The treatment of cells with the compounds was done in a concentration range starting from 40 to 2.5 μM. The compounds which were below 2.5 μM were tested in a concentration range from 2.5 to 0.15 μM. End of the 72h compound treatment, the cells were fixed using 10% (v/v) trichloroacetic acid (MERCK) for an hour and washed with ddH2O, and left for air-drying. The fixed plates were stained with 50 μL of sulforhodamine B (SRB) solution (Sigma) at RT for 10 min. To remove unbound SRB dye, acetic acid was used to wash cells three times and left for drying. The protein-bound SRB was solubilized with 10 mM Tris-base (Sigma) and their absorbance was measured with a 96-well plate reader at 515 nm wavelength (ELx800, Biotek). The IC50 values of compounds were calculated in comparison with control group DMSO. Data with R^2 values larger than 0.9 are considered significant.
For orientation: The SRB assay estimates cell density from bound dye.

In a further data set the test system is MCF7. The data set can be described thus: SRB cytotoxicity assay. Type of data set: cell-based, human. Conditions: 72 h treatment. Here is the method: as §1, §2
The test system of another data set is Mahlavu. Description: SRB cytotoxicity assay. Type of data set: cell-based, human. To be noted: Homo sapiens, Mahlavu, 72 h, 72 h treatment. Here is the method:
as §1, §2

For `Cc1ccccc1COc1ccc(-c2ccnn2-c2ccc(Cl)cc2)nc1` [compound 86, 2-(1-(4-Chlorophenyl)-1H-pyrazol-5-yl)-5-((2-methylbenzyl)oxy)pyridine], the melting point was 108.4 to 110.4 °C. In addition, in the data set on Huh7, the IC50 amounted to 2 µM. The compound further yielded an IC50 in the data set with MCF7 of 21.7 µM. Further, the half-maximal inhibitory concentration (IC50) with MCF7 (Homo sapiens, MCF7, 72 h) was ≥ 20 µM. This compound came in with an IC50 with Mahlavu of 7.1 µM.

The compound `Cc1ccccc1C(=O)Nc1ccc(-c2ccnn2-c2ccc(Cl)cc2)cc1` [compound 91, N-(4-(1-(4-Chlorophenyl)-1H-pyrazol-5-yl)phenyl)-2-methylbenzamide] returned a melting point of 179.1 to 180 °C. Also, the IC50 in the data set with Huh7 was > 20 µM. The IC50 in the data set on MCF7 (Homo sapiens, MCF7, 72 h) was > 20 µM. The IC50 with Mahlavu is > 20 µM.

`Cc1ccccc1COc1ccc(-n2nccc2-c2ccc(Cl)cc2)cc1` [compound 78, 5-(4-Chlorophenyl)-1-(4-((2-methylbenyl)oxy)phenyl)-1H-pyrazole]: the melting point lay within 145.2 to 146.4 °C. For the same compound, the half-inhibitory concentration (IC50) with Huh7 was > 20 µM. Further, the IC50 in the data set on MCF7 (Homo sapiens, MCF7, 72 h) was > 20 µM. In addition, the IC50 in the data set on Mahlavu is > 20 µM.

The compound `Cc1ccc(-c2c(-c3ccc(OCc4ccccc4C)cc3)noc2C)nc1` [compound 54, 5-Methyl-3-(4-((2-methylbenzyl)oxy)phenyl)-4-(5-methylpyridin-2-yl)isoxazole] registered a melting point of 121.4 to 122.3 °C. Moreover, the IC50 in the data set on Huh7 turned out to be 6.4 µM. The IC50 in the data set with MCF7 (Homo sapiens, MCF7, 72 h) is > 20 µM.

`Cc1onc(-c2ccc(OCc3ccc(Cl)nc3)cc2)c1-c1ccc(Cl)cc1` [compound 38, 4-(4-Chlorophenyl)-3-(4-((6-chloropyridin-3-yl)methoxy)phenyl)-5-methylisoxazole] registered a melting point of 168.2 to 170.8 °C. Moreover, the IC50 in the data set with Huh7 was > 20 µM. The IC50 in the data set on MCF7 (Homo sapiens, MCF7, 72 h) is > 20 µM.

In the case of `Cc1onc(-c2ccc(OCc3cccc(C#N)c3)cc2)c1-c1ccc(Cl)cc1` [compound 22, 3-((4-(4-(4-Chlorophenyl)-5-methylisoxazol-3-yl)phenoxy)methyl)benzonitrile], the melting point is 114.4 to 115.6 °C. The compound further registered an IC50 in the data set with Huh7 of 20.7 µM. Moreover, the IC50 with MCF7 (Homo sapiens, MCF7, 72 h) is > 20 µM.

In turn, `Cc1ccccc1COc1ccc(-c2noc(C)c2-c2ccc(Cl)cc2)cc1F` [compound 57, 4-(4-Chlorophenyl)-3-(3-fluoro-4-((2-methylbenzyl)oxy)phenyl)-5-methylisoxazole] displayed a melting point of 108 to 110.2 °C. In the data set on Huh7, this compound registered a half-maximal inhibitory concentration (IC50) of 9.8 µM. For the same compound, in the data set on MCF7 (Homo sapiens, MCF7, 72 h), the IC50 was > 20 µM.

The compound `Cc1ccccc1COc1ccc(-c2noc(C)c2-c2ccncc2)cc1` [compound 55, 5-Methyl-3-(4-((2-methylbenzyl)oxy)phenyl)-4-(pyridin-4-yl)isoxazole] gave a melting point of 128.5 to 129.3 °C. For the same compound, the IC50 in the data set with Huh7 is > 20 µM. Also, the IC50 in the data set with MCF7 (Homo sapiens, MCF7, 72 h) was > 20 µM.

`COc1ccc(COc2ccc(-c3noc(C)c3-c3ccc(Cl)cc3)cc2)cc1` [compound 25, 4-(4-Chlorophenyl)-3-(4-((4-methoxybenzyl)oxy)phenyl)-5-methylisoxazole] came in with a melting point of 126.1 to 127.4 °C. Further, the IC50 in the data set with Huh7 is > 20 µM. The IC50 in the data set on MCF7 (Homo sapiens, MCF7, 72 h) was > 20 µM.

The compound `Cc1ccccc1COc1ccc(-c2noc(C)c2-c2ccc(F)cc2)cc1` [compound 45, 5-Methyl-4-(4-fluorophenyl)-3-(4-((2-methylbenzyl)oxy)phenyl)isoxazole] came in with a melting point of 119 to 120.5 °C. The compound further yielded an IC50 in the data set with Huh7 of 16.7 µM. In addition, the IC50 with MCF7 (Homo sapiens, MCF7, 72 h) is > 20 µM.

On to `COc1ccc(-c2c(-c3ccc(OCc4ccccc4C)cc3)noc2C)cc1` [compound 46, 5-Methyl-4-(4-methoxyphenyl)-3-(4-((2-methylbenzyl)oxy)phenyl)isoxazole], for which the melting point lay within 121.3 to 122.7 °C. In the data set with Huh7, this compound had an IC50 of 8.9 µM. This compound showed an IC50 with MCF7 (Homo sapiens, MCF7, 72 h) of 12.8 µM.

Compound `Cc1cccc(COc2ccc(-c3noc(C)c3-c3ccc(Cl)cc3)cc2)c1C` [compound 30, 4-(4-Chlorophenyl)-3-(4-((2,3-dimethylbenzyl)oxy)phenyl)-5-methylisoxazole] registered a melting point of 167.2 to 168.5 °C. For the same compound, the IC50 with Huh7 stood at 15.3 µM. Moreover, in the data set with MCF7 (Homo sapiens, MCF7, 72 h), the IC50 is > 20 µM.

`Cc1ccccc1COc1ccc(-c2noc(C)c2-c2ccc(C#N)cc2)cc1` [compound 48, 5-Methyl-4-(4-cyanophenyl)-3-(4-((2-methylbenzyl)oxy)phenyl)isoxazole]: the melting point was 135.3 to 137.1 °C. Besides, in the data set with Huh7, the midpoint of inhibition, the IC50, lay at 6.7 µM. In addition, the IC50 with MCF7 is > 20 µM. Also, the IC50 in the data set on MCF7 (Homo sapiens, MCF7, 72 h) was ≥ 20 µM.

The compound `Cc1onc(-c2ccc(OCc3ccc(F)cc3)cc2)c1-c1ccc(Cl)cc1` [compound 26, 4-(4-Chlorophenyl)-3-(4-((4-fluorobenzyl)oxy)phenyl)-5-methylisoxazole] registered a melting point of 99.3 to 100.7 °C. In the data set on Huh7, this compound registered an IC50 of 19 µM. This compound also had a half-maximal inhibitory concentration (IC50) in the data set on MCF7 (Homo sapiens, MCF7, 72 h) of 13 µM.

With `Cc1onc(-c2ccc(OCc3ccc(C(F)(F)F)o3)cc2)c1-c1ccc(Cl)cc1` [compound 42, 4-(4-Chlorophenyl)-5-methyl-3-(4-((5-(trifluoromethyl)furan-2-yl)methoxy)phenyl) isoxazole], the melting point lay in the range of 105.7 to 106.8 °C. In addition, in the data set with Huh7, the IC50 was found to be 13.4 µM. For the same compound, half-maximal inhibition in the data set with MCF7 (Homo sapiens, MCF7, 72 h) (IC50) required 14 µM.

The compound `Cc1onc(-c2ccc(OCc3ccccc3OC(F)(F)F)cc2)c1-c1ccc(Cl)cc1` [compound 13, 4-(4-Chlorophenyl)-5-methyl-3-(4-((2-(trifluoromethoxy)benzyl)oxy)phenyl)isoxazole] registered a melting point of 85.8 to 86.7 °C. The compound also came in with a 50% inhibitory concentration (IC50) with Huh7 of 16.3 µM. The IC50 in the data set on MCF7 (Homo sapiens, MCF7, 72 h) was > 20 µM.

Compound `Cc1onc(-c2ccc(OCc3cncn3C(C)C)cc2)c1-c1ccc(Cl)cc1` [compound 41, 4-(4-Chlorophenyl)-3-(4-((1-isopropyl-1H-imidazol-5-yl)methoxy)phenyl)-5-methylisoxazole] showed a melting point of 168.4 to 170.7 °C. Besides, it took 2.5 µM to reach half-maximal inhibition with Huh7 (IC50). In the data set on MCF7 (Homo sapiens, MCF7, 72 h), the IC50 came to 16.7 µM.

As to `Cc1onc(-c2ccc(OCc3ccccc3C(F)(F)F)cc2)c1-c1ccc(Cl)cc1` [compound 18, 4-(4-Chlorophenyl)-5-methyl-3-(4-((2-(trifluoromethyl)benzyl)oxy)phenyl)isoxazole], the melting point was 132.8 to 134.4 °C. In addition, 14.2 µM corresponded to half-maximal inhibition in the data set on Huh7 (IC50). Moreover, the concentration for half-maximal inhibition (IC50) in the data set on MCF7 (Homo sapiens, MCF7, 72 h) was > 20 µM.

On to `Cc1onc(-c2ccc(OCc3ccccc3Cl)cc2)c1-c1ccc(Cl)cc1` [compound 16, 4-(4-Chlorophenyl)-3-(4-((2-chlorobenzyl)oxy)phenyl)-5-methylisoxazole], for which the melting point fell in the range of 105.2 to 106.4 °C. The compound also showed an IC50 with Huh7 of 20 µM. Further, the IC50 in the data set on MCF7 (Homo sapiens, MCF7, 72 h) is > 20 µM.

The compound `Cc1onc(-c2ccc(OCc3cccnc3)cc2)c1-c1ccc(Cl)cc1` [compound 32, 4-(4-Chlorophenyl)-5-methyl-3-(4-(pyridin-3-ylmethoxy)phenyl)isoxazole] yielded a melting point of 115.5 to 116.4 °C. This compound had a 50% inhibitory concentration (IC50) with Huh7 of 7.7 µM. This compound returned an IC50 in the data set with MCF7 (Homo sapiens, MCF7, 72 h) of 8.3 µM.

Regarding `Cc1onc(-c2ccc(OCc3ccc4ccccc4n3)cc2)c1-c1ccc(Cl)cc1` [compound 34, 4-(4-Chlorophenyl)-5-methyl-3-(4-(quinolin-2-ylmethoxy)phenyl)isoxazole], the melting point is 164.7 to 165.8 °C. This compound also yielded an IC50 with Huh7 of 9.1 µM. Also, the IC50 in the data set on MCF7 (Homo sapiens, MCF7, 72 h) is > 20 µM.

As to `Cc1ccccc1COc1ccc(-c2noc(C)c2-c2ccc(Cl)cc2Cl)cc1` [compound 53, 5-Methyl-4-(2,4-dichlorophenyl)-3-(4-((2-methylbenzyl)oxy)phenyl)isoxazole], the melting point fell in the range of 98 to 98.4 °C. Further, half-maximal inhibition in the data set with Huh7 (IC50) required 8.2 µM. The same compound showed an IC50 in the data set on MCF7 (Homo sapiens, MCF7, 72 h) of 19.2 µM.

For the compound `Cc1cc(COc2ccc(-c3noc(C)c3-c3ccc(Cl)cc3)cc2)n(C)n1` [compound 40, 4-(4-Chlorophenyl)-3-(4-((1,3-dimethyl-1H-pyrazol-5-yl)methoxy)phenyl)-5-methylisoxazole], the melting point was 156.4 to 157.9 °C. The half-inhibitory concentration (IC50) in the data set with Huh7 was determined as 0.9 µM. Half-maximal inhibition with MCF7 (Homo sapiens, MCF7, 72 h) (IC50) required 12.2 µM.

As usually defined, the IC50 is the concentration that gives 50% inhibition. A high value points to lower potency. In general, melting point refers to the temperature, or range, at which the solid turns liquid.

The record behind these values is paper PMC9583322, “Vicinal Diaryl-Substituted Isoxazole and Pyrazole Derivatives with In Vitro Growth Inhibitory and In Vivo Antitumor Activity” (ACS Omega, 2022).
